Assay results reported in patent US6211155A, “Peptide conjugates derived from thymic hormones, their use as a medicament and compositions containing them” (Institut European de Biologie Cellulaire, priority 1995, dated 2001).
Where no end group is shown, it is not given here.

How the values were obtained:
[1] = system: normal human keratinocytes; experiment: Synthesis of 46-47 KD keratin by human keratinocytes in primary culture; assay type: cell-based; conditions: compared with a control
Description: (§1) Culture of normal human keratinocytes
(§2) The epidermis is then dissociated under gentle mechanical action, or enzymically, in order to obtain the individual cells. Only the basal cells are capable of multiplying in vitro.
(§3) The culture is carried out at 37° C. in a controlled moist atmosphere ([…] --5% CO2).
(§4) In monolayer culture, the calcium concentration is between 0.05 and 0.1 mM. […] The synthesis of the keratinocytes is maintained. The intercellular spaces are wide: cell connections are maintained by microvillosities and not by tight junctions. While the tonofilaments of the perinuclear space can be seen, they are still not attached to the anchoring plaques.
(§5) Stratification can be induced by increasing the final calcium concentration in the culture medium to 1.2 mM. The formation of desmosomes then appears after 2 hours.
(§6) I ETF derivative No. IX, which has been lyophilized
in Dextran (40 g/l) and which is at a concen-
tration of 10^-6 M in the final culture medium.
II Crist. SIGMA thymopoietin - at a concentration of
10^-6 M in the final culture medium.
(§7) Human keratinocytes are cultured as described by Henning et al. (1983) or Fuchs et al. (1981). Air/liquid cultures are also carried out using the following methodology.
The cell markers which are selected are the low-molecular-weight 46/47 KD keratins, which are specific for the growth and cell differentiation of the germinative cells.
(§8) Indirect fluorescent labeling by the sandwich technique--48 hours after adding calcium to the culture medium (stratification).
rat antihuman 46-47 KD keratin antibody
FITC-labeled mouse antirat Ig G2 antibody.
(§9) Use of immunofluorescence, with graphic recording, for measuring cell markers.
(§10) Spectrofluorometric assays
(§11) "Perkin Elmer LS-50 B spectrofluorimeter".
(§12) on cell homogenate supernatants.
(§13) LOWRY technique using a Perkin Elmer UV spectrophotometer (cell homogenate supernatants).
(§14) The fluorescence intensity of the cells treated with ETF No. IX is assessed in comparison with the fluorescence intensity of the controls.

[2] = system: normal human keratinocytes; experiment: Synthesis of keratohyalin (filaggrin) by human keratinocytes in primary culture; assay type: cell-based; conditions: for Stimulation % (keratohyalin synthesis): compared with a control; for Keratin/protein mean (keratohyalin synthesis, Table III): proteins expressed in micrograms/ml
Description: as §1, §2, §3, §4, §5, §6
in Dextran (40 g/l) and which is at a concen- […]
II Crist. SIGMA thymopoietin - at a concentration of […]
as §7
The filaggrins are markers of keratohyalin.
as §8
human antikeratohyalin (filaggrin) antibody
FITC-labeled goat antihuman Ig G antibody.
as §9, §10, §11, §12, §13, §14

[3] = system: Thy 1.2+ thymocytes of the epidermis; experiment: Thy 1.2+ epidermal cell density after topical application to mouse ear (immunofluorescence); assay type: in vivo, C57-BL/6 mice; conditions: for Number of Thy 1.2+ cells per mm^2 of epidermis, batch 1 / Number of Thy 1.2+ cells per mm^2 of epidermis, batch 2 / Number of Thy 1.2+ cells per mm^2 of epidermis, batch 3 / Number of Thy 1.2+ cells per mm^2 of epidermis, batch 4 / Number of Thy 1.2+ cells per mm^2 of epidermis, Mean: C 57 BL/6 mice; for Number of Thy 1.2+ cells per mm^2 of epidermis, Mean: 4 batches; for Thy 1.2+ cells % T: relative to PG controls
Description: (§15) I--Experimental Samples--Code: ETF
(§16) In solution in propylene glycol at a concentration of 10^-5 M/ml
(§17) 5 to 7-week-old male C 57-BL/6 mice, which are divided into groups of 4 per cage, and which have free access to water and food and which are subjected to a photoperiod of 12 h of light per 24 hours, are given a topical application of the peptide in propylene glycol (50 μl vol) on the dorsal surface of the ear daily for 5 consecutive days.
(§18) The animals are sacrificed on day 6. The ears are removed, with the dorsal and ventral surfaces being separated.
(§19) The tissues of the dorsal surface are immersed in Na EDTA (0.020 M) at 37° C. for 2 h.
(§20) After incubation, the epidermis is removed in the form of an intact sheet, fixed with acetone and rehydrated in PBS (phosphate buffer).
(§21) The Thy 1-2+ and Ia+ EDC (epidermal dendritic cells) are identified by indirect immunofluorescence double labeling.
(§22) In the case of each epidermal sheet, the number of cells per mm^2 is determined using the peripheral regions of the same surface.
The Thy 1.2+ EDC were identified by indirect immunofluorescence double labeling. The epidermal sheets were fixed with acetone and then rehydrated in PBS.
The tissues were labeled simultaneously, at 4° C. for 16 h, with mouse anti-Thy 1.2+ antibody which was diluted 1:100. The tissue samples were washed three times in PBS for 60 min and then incubated, at 37° C. for 60 min, either with goat antimouse antibody which was coupled to rhodamine and diluted 1:20, or with goat antirabbit antibody which was coupled to fluorescein (fluorescine and diluted 1:20 in PBS. The tissues were then washed in PBS before being mounted as previously described.
(§23) In the case of each epidermal sheet, the number of Ia+ Langerhans cells or Thy 1.2+ EDCs per square millimeter was determined by means of immunofluorescence, using a confocal Zeiss microscope which was equipped for this purpose, in four peripheral areas of the same surface. At least four animals were studied in each of the groups. The density of Ia+ Langerhans cells and Thy 1.2+ EDCs is shown for each measurement.

Ia+ Langerhans cells = experiment: Ia+ Langerhans cell density after topical application to mouse ear; assay type: in vivo, C57-BL/6 mice; conditions: for Number of Ia+ cells per mm^2 of epidermis, batch 1 / Number of Ia+ cells per mm^2 of epidermis, batch 2 / Number of Ia+ cells per mm^2 of epidermis, batch 3 / Number of Ia+ cells per mm^2 of epidermis, batch 4 / Number of Ia+ cells per mm^2 of epidermis, Mean: C 57 BL/6 mice; for Number of Ia+ cells per mm^2 of epidermis, Mean: 4 batches; for Ia+ cells %: relative to PG controls
Description: as §15, §16, §17, §18, §19, §20, §21, §22
The EDC (epidermal dendritic cells) carrying the Ia+ marker were identified using an anti-Ia+ monoclonal antibody.
The epidermal sheets are fixed with acetone and then incubated, at 37° C. for 1 h, in the presence of the anti-Ia+ monoclonal antibody, which has been labeled by the indirect immunoperoxidase method (Kit).
After having been incubated at 37° C. for 10 minutes with a solution of aminoethylcarbazole, the preparation is washed with PBS.
as §23

For “A-Gln-Gly-Gly-Ser-Asn-NH2 (QGGSN; not fully specified (N-terminus, C-terminus)) [ETF No. IX, A not specified; lyophilized in Dextran for the test]”, the “Stimulation % (46-47 KD keratin synthesis)” value ([1]; Concentration 10^-6 M) was 90%, the “Stimulation % (46-47 KD keratin synthesis)” value ([1]; Concentration 10^-8 M) was 95% and the “Stimulation % (46-47 KD keratin synthesis)” value ([1]; Concentration 10^-10 M) was 86%. For the same substance, the “Stimulation % (46-47 KD keratin synthesis)” value ([1]; Concentration 10^-12 M) was 41%, the “Stimulation % (keratohyalin synthesis)” value ([2]; Concentration 10^-6 M) was 62% and the “Keratin/protein mean (keratohyalin synthesis, Table III)” value (“Keratin/protein mean” below) ([2]; Concentration 10^-6 M) was 5.97. The “Stimulation % (keratohyalin synthesis)” value ([2]; Concentration 10^-8 M) was 83%, the “Keratin/protein mean” value ([2]; Concentration 10^-8 M) was 6.75 and the “Stimulation % (keratohyalin synthesis)” value ([2]; Concentration 10^-10 M) was 39%. For the same substance, the “Keratin/protein mean” value ([2]; Concentration 10^-10 M) was 5.13, the “Stimulation % (keratohyalin synthesis)” value ([2]; Concentration 10^-12 M) was 38% and the “Keratin/protein mean” value ([2]; Concentration 10^-12 M) was 5.11.
In the case of “A-Pyr-Ala-Lys-Ser-Gln-Gly-Gly-Ser-Asn-NH2 (AKSQGGSN; not fully specified (N-terminus, C-terminus); printed as A-Pyr-Ala-Lys-Ser-Gln-Gly-Gly-Ser-Asn-NH2) [ETF-I, A of the tested sample not restated]”, the “Number of Thy 1.2+ cells per mm^2 of epidermis, batch 1” value ([3]; dose 0.10 Nanog.) is reported as 197 cells per mm^2, the “Number of Thy 1.2+ cells per mm^2 of epidermis, batch 2” value ([3]; dose 0.10 Nanog.) is reported as 180 cells per mm^2 and the “Number of Thy 1.2+ cells per mm^2 of epidermis, batch 3” value ([3]; dose 0.10 Nanog.) is reported as 192 cells per mm^2. For the same substance, the “Number of Thy 1.2+ cells per mm^2 of epidermis, batch 4” value ([3]; dose 0.10 Nanog.) was 207 cells per mm^2, the “Number of Thy 1.2+ cells per mm^2 of epidermis, Mean” value ([3]; dose 0.10 Nanog.) was 194.00 cells per mm^2 and the “Thy 1.2+ cells % T” value ([3]; dose 0.10 Nanog.) was 120%. For the same substance, the “Number of Thy 1.2+ cells per mm^2 of epidermis, batch 1” value ([3]; dose 0.50 Nanog.) was 200 cells per mm^2, the “Number of Thy 1.2+ cells per mm^2 of epidermis, batch 2” value ([3]; dose 0.50 Nanog.) was 208 cells per mm^2 and the “Number of Thy 1.2+ cells per mm^2 of epidermis, batch 3” value ([3]; dose 0.50 Nanog.) was 199 cells per mm^2. For the same substance, the “Number of Thy 1.2+ cells per mm^2 of epidermis, batch 4” value ([3]; dose 0.50 Nanog.) was 219 cells per mm^2, the “Number of Thy 1.2+ cells per mm^2 of epidermis, Mean” value ([3]; dose 0.50 Nanog.) was 206.50 cells per mm^2 and the “Thy 1.2+ cells % T” value ([3]; dose 0.50 Nanog.) was 134%. For the same substance, the “Number of Thy 1.2+ cells per mm^2 of epidermis, batch 1” value ([3]; dose 1.00 Nanog.) was 214 cells per mm^2, the “Number of Thy 1.2+ cells per mm^2 of epidermis, batch 2” value ([3]; dose 1.00 Nanog.) was 210 cells per mm^2 and the “Number of Thy 1.2+ cells per mm^2 of epidermis, batch 3” value ([3]; dose 1.00 Nanog.) was 208 cells per mm^2. The “Number of Thy 1.2+ cells per mm^2 of epidermis, batch 4” value ([3]; dose 1.00 Nanog.) was 226 cells per mm^2, the “Number of Thy 1.2+ cells per mm^2 of epidermis, Mean” value ([3]; dose 1.00 Nanog.) was 214.50 cells per mm^2 and the “Thy 1.2+ cells % T” value ([3]; dose 1.00 Nanog.) was 143%. For the same substance, the “Number of Ia+ cells per mm^2 of epidermis, batch 1” value (Ia+ Langerhans cells; dose 0.10 Nanog.) was 368 cells per mm^2, the “Number of Ia+ cells per mm^2 of epidermis, batch 2” value (Ia+ Langerhans cells; dose 0.10 Nanog.) was 388 cells per mm^2 and the “Number of Ia+ cells per mm^2 of epidermis, batch 3” value (Ia+ Langerhans cells; dose 0.10 Nanog.) was 378 cells per mm^2. The “Number of Ia+ cells per mm^2 of epidermis, batch 4” value (Ia+ Langerhans cells; dose 0.10 Nanog.) was 395 cells per mm^2, the “Number of Ia+ cells per mm^2 of epidermis, Mean” value (Ia+ Langerhans cells; dose 0.10 Nanog.) was 382.25 cells per mm^2 and the “Ia+ cells %” value (Ia+ Langerhans cells; dose 0.10 Nanog.) was 273%. The “Number of Ia+ cells per mm^2 of epidermis, batch 1” value (Ia+ Langerhans cells; dose 0.50 Nanog.) was 360 cells per mm^2, the “Number of Ia+ cells per mm^2 of epidermis, batch 2” value (Ia+ Langerhans cells; dose 0.50 Nanog.) was 392 cells per mm^2 and the “Number of Ia+ cells per mm^2 of epidermis, batch 3” value (Ia+ Langerhans cells; dose 0.50 Nanog.) was 386 cells per mm^2. The “Number of Ia+ cells per mm^2 of epidermis, batch 4” value (Ia+ Langerhans cells; dose 0.50 Nanog.) was 399 cells per mm^2, the “Number of Ia+ cells per mm^2 of epidermis, Mean” value (Ia+ Langerhans cells; dose 0.50 Nanog.) was 384.25 cells per mm^2 and the “Ia+ cells %” value (Ia+ Langerhans cells; dose 0.50 Nanog.) was 275%. For the same substance, the “Number of Ia+ cells per mm^2 of epidermis, batch 1” value (Ia+ Langerhans cells; dose 1.00 Nanog.) was 372 cells per mm^2, the “Number of Ia+ cells per mm^2 of epidermis, batch 2” value (Ia+ Langerhans cells; dose 1.00 Nanog.) was 410 cells per mm^2 and the “Number of Ia+ cells per mm^2 of epidermis, batch 3” value (Ia+ Langerhans cells; dose 1.00 Nanog.) was 390 cells per mm^2. The “Number of Ia+ cells per mm^2 of epidermis, batch 4” value (Ia+ Langerhans cells; dose 1.00 Nanog.) was 412 cells per mm^2, the “Number of Ia+ cells per mm^2 of epidermis, Mean” value (Ia+ Langerhans cells; dose 1.00 Nanog.) was 396.00 cells per mm^2 and the “Ia+ cells %” value (Ia+ Langerhans cells; dose 1.00 Nanog.) was 286%.
For thymopoietin [reference compound], the “Stimulation % (46-47 KD keratin synthesis)” value ([1]; Concentration 10^-6 M) was 19%, the “Stimulation % (keratohyalin synthesis)” value ([2]; Concentration 10^-6 M) was 35% and the “Keratin/protein mean” value ([2]; Concentration 10^-6 M) was 4.99.
